Measured values: patent US8952024B2, “Herbicidal pyrimidone derivatives” (E I du Pont de Nemours and Company, priority 2009, dated 2015)

Columns and labels:
Format in all cases: in vivo
[1] = system: barnyardgrass (Echinochloa crus-galli); assay: Test B flooded paddy test; settings: for Plant response rating, Barnyardgrass: Flood (flooded paddy test), 13 to 15 days
In short: (§1)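 Plants were grown to the 2-leaf stage, then pots were flooded to 3 cm above the soil and compounds were applied directly into the paddy water. That depth was held throughout. After 13 to 15 days in a greenhouse, injury was visually rated against controls on a 0–100 scale.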

[2] = system: umbrella sedge (Cyperus difformis); assay: Test B flooded paddy test; settings: for Plant response rating, Sedge, Umbrella: Flood (flooded paddy test), 13 to 15 days
In short: as §1

[3] = system: wheat (Triticum aestivum); assay: Test B pre-/postemergence plant response
In short: (§2)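 Pre-em in loam/sand; post-em at 1–4 leaf (2–18 cm) in peat mix. Solvent + surfactant formulation. Greenhouse 13–15 d; visual % control vs untreated, 0–100.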

[4] = system: bermudagrass (Cynodon dactylon); assay: Test B pre-/postemergence plant response
In short: as §2

[5] = system: green foxtail (Setaria viridis); assay: Test B pre-/postemergence plant response
In short: as §2

[6] = system: cocklebur (Xanthium strumarium); assay: Test B pre-/postemergence plant response; settings: Preemergence
In short: as §2

wild oat (Avena fatua) = assay: Test B pre-/postemergence plant response
In short: as §2

[7] = system: lambsquarters (Chenopodium album); assay: Test B pre-/postemergence plant response
In short: as §2

[8] = system: goosegrass (Eleusine indica); assay: Test B pre-/postemergence plant response
In short: as §2

[9] = system: yellow nutsedge (Cyperus esculentus); assay: Test B pre-/postemergence plant response
In short: as §2

[10] = system: morningglory (Ipomoea coccinea); assay: Test B pre-/postemergence plant response
In short: as §2

[11] = system: large crabgrass (Digitaria sanguinalis); assay: Test B pre-/postemergence plant response
In short: as §2

[12] = 250 g ai/ha, flooded paddy test, visual rating on 0 to 100 scale (0 no effect, 100 complete control) after 13 to 15 days
[13] = 62 g ai/ha, scale of 0 to 100 where 0 is no effect and 100 is complete control
[14] = 125 g ai/ha, scale 0 to 100, 0 is no effect, 100 is complete control
[15] = Flood, 31 g ai/ha, scale 0 to 100 (0 no effect, 100 complete control)
[16] = Postemergence, 31 g ai/ha, 0 to 100 scale (0 no effect, 100 complete control)
[17] = Postemergence, 62 g ai/ha, scale 0 to 100 (0 no effect, 100 complete control)
[18] = Postemergence, 250 g ai/ha, scale 0 to 100 (0 no effect, 100 complete control), 13 to 15 days
[19] = Preemergence, 31 g ai/ha, scale 0 to 100 (0 no effect, 100 complete control)
[20] = Preemergence, 62 g ai/ha, scale 0 to 100 (0 no effect, 100 complete control)
[21] = Preemergence, 125 g ai/ha, scale 0 to 100, 0 no effect, 100 complete control
[22] = Preemergence, 250 g ai/ha, 0 to 100 scale
[23] = Postemergence, 125 g ai/ha, scale 0 to 100 (0 no effect, 100 complete control)

With `COc1ccc(-n2c(-c3ccccc3)ncc(C(=O)C3=C(O)CCCC3=O)c2=O)cc1OC` [Compound 218] the “Plant response rating, Flood, Barnyardgrass” value [1, 12] was 40, the “Plant response rating, Barnyardgrass” value [1, 13] was 0 and the “Plant response rating, Barnyardgrass” value [1, 14] was 30. For the same compound, the “Barnyardgrass plant response rating” value [1, 15] was 0, the “Plant response rating, Flood, Sedge, Umbrella” value [2, 12] was 85 and the “Plant response rating, Sedge, Umbrella” value [2, 13] was 80. The “Plant response rating, Sedge, Umbrella” value [2, 14] was 85, the “Sedge, Umbrella plant response rating” value [2, 15] was 75 and the “Plant response rating, Wheat” value [3, 16] was 0. For the same compound, the “Plant response rating, Wheat” value [3, 17] was 0, the “Plant response rating, Wheat” value [3, 18] was 0 and the “Plant response rating, Wheat” value [3, 19] was 0. The “Plant response rating, Wheat” value [3, 20] was 0, the “Plant response rating, Wheat” value [3, 21] was 0 and the “Wheat plant response rating” value [3, 22] was 0. For the same compound, the “Plant response rating, Bermudagrass” value [4, 16] was 70, the “Plant response rating, Bermudagrass” value [4, 17] was 80 and the “Plant response rating, Bermudagrass” value [4, 23] was 95. For the same compound, the “Plant response rating, Bermudagrass” value [4, 18] was 100, the “Plant response rating, Bermudagrass” value [4, 19] was 98 and the “Plant response rating, Bermudagrass” value [4, 20] was 100. The “Plant response rating, Bermudagrass” value [4, 21] was 100, the “Bermudagrass plant response rating” value ([4]; Preemergence, 250 g ai/ha, 0 to 100 scale, 0 no effect, 100 complete control) was 100 and the “Plant response rating, Foxtail, Green” value [5, 16] was 60. For the same compound, the “Plant response rating, Foxtail, Green” value [5, 17] was 85, the “Plant response rating, Foxtail, Green” value [5, 23] was 90 and the “Plant response rating, Foxtail, Green” value [5, 18] was 90. For the same compound, the “Plant response rating, Foxtail, Green” value [5, 19] was 0, the “Plant response rating, Foxtail, Green” value [5, 20] was 30 and the “Plant response rating, Foxtail, Green” value [5, 21] was 80. For the same compound, the “Foxtail, Green plant response rating” value [5, 22] was 100, the “Plant response rating, Cocklebur” value ([6]; 62 g ai/ha, scale 0 to 100 (0 no effect, 100 complete control)) was 0 and the “Plant response rating, Cocklebur” value ([6]; 125 g ai/ha, scale 0 to 100, 0 no effect, 100 complete control) was 90. The “Cocklebur plant response rating” value ([6]; 250 g ai/ha, 0 to 100 scale) was 100, the “Plant response rating, Oat, Wild” value (wild oat (Avena fatua); [16]) was 40 and the “Plant response rating, Oat, Wild” value (wild oat (Avena fatua); [17]) was 45. The “Plant response rating, Oat, Wild” value (wild oat (Avena fatua); [18]) was 60, the “Plant response rating, Oat, Wild” value (wild oat (Avena fatua); [19]) was 0 and the “Plant response rating, Oat, Wild” value (wild oat (Avena fatua); [20]) was 0. For the same compound, the “Plant response rating, Oat, Wild” value (wild oat (Avena fatua); [21]) was 0, the “Oat, Wild plant response rating” value (wild oat (Avena fatua); [22]) was 0 and the “Plant response rating, Lambsquarters” value [7, 16] was 98. For the same compound, the “Plant response rating, Lambsquarters” value [7, 17] was 98, the “Plant response rating, Lambsquarters” value [7, 23] was 100 and the “Plant response rating, Lambsquarters” value [7, 18] was 100. The “Plant response rating, Lambsquarters” value [7, 19] was 100, the “Plant response rating, Lambsquarters” value [7, 20] was 100 and the “Plant response rating, Lambsquarters” value [7, 21] was 100. The “Lambsquarters plant response rating” value [7, 22] was 100, the “Plant response rating, Goosegrass” value [8, 16] was 0 and the “Plant response rating, Goosegrass” value [8, 17] was 10. The “Plant response rating, Goosegrass” value [8, 23] was 15, the “Plant response rating, Goosegrass” value [8, 18] was 35 and the “Plant response rating, Goosegrass” value [8, 19] was 10. The “Plant response rating, Goosegrass” value [8, 20] was 60, the “Plant response rating, Goosegrass” value [8, 21] was 98 and the “Goosegrass plant response rating” value [8, 22] was 98. For the same compound, the “Plant response rating, Nutsedge, Yellow” value [9, 16] was 10, the “Plant response rating, Nutsedge, Yellow” value [9, 17] was 15 and the “Plant response rating, Nutsedge, Yellow” value [9, 23] was 15. The “Plant response rating, Nutsedge, Yellow” value [9, 18] was 60, the “Plant response rating, Nutsedge, Yellow” value [9, 19] was 45 and the “Plant response rating, Nutsedge, Yellow” value [9, 20] was 75. The “Plant response rating, Nutsedge, Yellow” value [9, 21] was 90, the “Nutsedge, Yellow plant response rating” value [9, 22] was 90 and the “Plant response rating, Morningglory” value [10, 16] was 70. The “Plant response rating, Morningglory” value [10, 17] was 70, the “Plant response rating, Morningglory” value [10, 23] was 80 and the “Plant response rating, Morningglory” value [10, 18] was 98. For the same compound, the “Plant response rating, Morningglory” value [10, 19] was 0, the “Plant response rating, Morningglory” value [10, 20] was 0 and the “Plant response rating, Morningglory” value [10, 21] was 15. For the same compound, the “Morningglory plant response rating” value [10, 22] was 65, the “Plant response rating, Crabgrass, Large” value [11, 16] was 40 and the “Plant response rating, Crabgrass, Large” value [11, 17] was 45. The “Plant response rating, Crabgrass, Large” value [11, 23] was 70, the “Plant response rating, Crabgrass, Large” value [11, 18] was 90 and the “Plant response rating, Crabgrass, Large” value [11, 19] was 0. The “Plant response rating, Crabgrass, Large” value [11, 20] was 20, the “Plant response rating, Crabgrass, Large” value [11, 21] was 65 and the “Crabgrass, Large plant response rating” value [11, 22] was 98.
